The test system of one assay is blood glucose level. Put plainly: Oral glucose tolerance test (OGTT) in high-fat diet model. The format is in vivo. The note with it: hypoglycemic level, 20 mg/kg oral, glucose 2 g/kg oral after 30 minutes; for inhibition in vivo at 20 mg/kg: Mus musculus, 2 h, read-out: % AUC. As to the method: To evaluate in vivo effective effects of the cyclohexene derivatives according to the present invention, experiments were carried out, as follows.
Specifically, male C57BL/6J (C57 black 6) […] (8 to 10 weeks old) in a high-fat diet model were acclimated for at least 7 days, and only healthy rat populations were selected and subjected to an oral glucose tolerance test (OGTT). The rats were fasted for 12 to 15 hours, and then randomly divided into groups with five rats per group. Thereafter, each of the compounds of Examples 1, 14, 48, 69, 80, 118, 139, 147, 148, 169, 190, 199, 200, 204, 227, and Comparative Examples 1 and 2 according to the present invention was administered to the rats at a dose of 20 mg/kg. In this case, a vehicle (0.5%, carboxymethyl cellulose (CMC)) was administered as an untreated group, and the dose of the compound administered together with the vehicle was orally administered at 10 ml/kg. After 30 minutes of administration, glucose (2 g/kg) was orally administered at a dose of 10 ml/kg. A blood glucose level was measured using an Accu-Chek Active Strip (Rosche Diagnostic Co.). In this case, the glucose level in blood collected via caudal venipuncture was measured at time points of −30, 0, 20, 40, 60, and 120 minutes after glucose administration.
In Table 3, the unit “% AUC (area under the curve)” represents a hypoglycemic level.

For assay [1], the target named is T1, G protein-coupled receptor 119 (GPR-119) (Mesocricetus auratus, UniProt A0A1U8CD06).
T1 construct: hamster-derived β-cells containing G protein-coupled receptor 119 (GPR-119), HIT-T15 cells; host or cells: HIT-T15 (hamster pancreatic β-cells)
T1 sequence (A0A1U8CD06 1-334): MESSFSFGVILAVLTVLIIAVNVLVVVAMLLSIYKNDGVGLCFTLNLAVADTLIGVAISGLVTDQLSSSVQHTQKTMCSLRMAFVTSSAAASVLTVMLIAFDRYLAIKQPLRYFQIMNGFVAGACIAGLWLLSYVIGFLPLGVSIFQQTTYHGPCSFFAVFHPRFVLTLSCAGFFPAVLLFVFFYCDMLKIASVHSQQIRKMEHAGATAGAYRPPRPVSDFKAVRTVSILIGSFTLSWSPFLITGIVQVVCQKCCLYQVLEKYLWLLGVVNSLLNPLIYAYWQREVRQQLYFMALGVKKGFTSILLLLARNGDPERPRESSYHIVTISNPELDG
Put plainly: Evaluation of cAMP activity in HIT-T15 cells (HTRF cAMP dynamic kit). The format is cell-based, hamster. To be noted: cAMP activation. The method, boiled down: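 HIT-T15 cells, 60,000/well, treated next day with compound at six concentrations ([…]) for 1 h at 37° C. Lysate cAMP quantified by HTRF competitive immunoassay (D2-cAMP, cryptate anti-cAMP); activity taken as change in FRET signal relative to DMSO.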
(Time-resolved FRET reads energy transfer from a long-lived donor to a nearby acceptor.)

Where [2] appears, read: 1 h at 37° C., six concentrations, read-out: EC50.

The structures appear in SMILES notation. Counter-ions that a name gives are not always drawn. Like-named read-outs stand apart in the source and are kept apart here.

From patent US9758527B2, “Cyclohexene derivative, preparation method therefor, and pharmaceutical composition for preventing or treating metabolic diseases, containing same as active ingredient” (HYUNDAI PHARM CO., LTD., priority 2014, dated 2017) come the findings set out here.

With `CC(C)(C)OC(=O)N1CCC(COc2ccc(C3=CCC(C(=O)NCCO)CC3)cc2)CC1` (stereo not drawn) [Example 190, tert-butyl 4-((4-(4-(2-hydroxyethylcarbamoyl)cyclohex-1-enyl)phenoxy)methyl)piperidine-1-carboxylate], in the assay with blood glucose level, the “% AUC” value is 20.9 % AUC.

A word on the EC50: it is the midpoint of the concentration-response curve. For the compound `CCc1cnc(N2CCC(COc3ccc(C4=CCC(C(=O)N5CCC(CO)CC5)CC4)cc3)CC2)nc1` (stereo not drawn) [Example 169, (4-(4-((1-(5-ethylpyrimidin-2-yl)piperidin-4-yl)methoxy)phenyl)cyclohex-3-enyl)(4-(hydroxymethyl)piperidin-1-yl)methanone hydrochloride], the EC50 in assay [1] (setting [2]) was 0.009 µM. Besides, the inhibition in vivo at 20 mg/kg with blood glucose level was 21.7%.

`CC(C)(C)OC(=O)N1CCC(COc2ccc(C3=CCC(C(=O)N4CCC(CCO)CC4)CC3)cc2)CC1` (stereo not drawn) [Example 200, tert-butyl 4-((4-(4-(4-(2-hydroxyethyl)piperidine-1-carbonyl)cyclohex-1-enyl)phenoxy)methyl)piperidine-1-carboxylate]: the EC50 in assay [1] (setting [2]) is 0.023 µM; in assay [1] (read-out: EC50 value), ≤ 0.05 µM. Further, the inhibition in vivo at 20 mg/kg with blood glucose level turned out to be 24%.

Regarding `CC(C)c1noc(C2CCN(c3ncnc(Nc4ccc(S(C)(=O)=O)cc4F)c3[N+](=O)[O-])CC2)n1` [Comparative Example 1, N-(2-fluoro-4-methylsulfonylphenyl)-5-nitro-6-[4-(3-propan-2-yl-1,2,4-oxadiazol-5-yl)piperidin-1-yl]pyrimidine-4-amine, reference compound], the inhibition in vivo at 20 mg/kg in the assay on blood glucose level was found to be 13.5%.

As for `CCc1cnc(N2CCC(COc3ccc(C4=CCC(C(=O)N5CCC(C#N)CC5)CC4)cc3)CC2)nc1` (stereo not drawn) [Example 227, 1-(4-(4-((1-(5-ethylpyrimidin-2-yl)piperidin-4-yl)methoxy)phenyl)cyclohex-3-enecarbonyl)piperidine-4-carbonitrile], the values for the concentration giving a half-maximal response (EC50) in assay [1] (setting [2]) and in assay [1] (read-out: EC50 value) were 0.006 µM and ≤ 0.05 µM, respectively. Besides, the inhibition in vivo at 20 mg/kg in the assay on blood glucose level came out at 26.8%.

Take `CCc1cnc(N2CCC(COc3ccc(C4=CCC(C(=O)N5CCC(=NO)CC5)CC4)cc3)CC2)nc1` (stereo not drawn) [Example 277, (4-(4-((1-(5-ethylpyrimidin-2-yl)piperidin-4-yl)methoxy)phenyl)cyclohex-3-enyl)(4-(hydroxyimino)piperidin-1-yl)methanone]: the EC50 in assay [1] (setting [2]) came to 0.02 µM. In the assay with blood glucose level, the “% AUC” value is recorded as 19.8 % AUC.

As to `CCN(CCO)C(=O)C1CC=C(c2ccc(OCC3CCN(C(=O)OC(C)(C)C)CC3)cc2)CC1` (stereo not drawn) [Example 199, tert-butyl 4-((4-(4-(ethyl(2-hydroxyethyl)carbamoyl)cyclohex-1-enyl)phenoxy)methyl)piperidine-1-carboxylate], the EC50 in assay [1] (setting [2]) is 0.008 µM; in assay [1] (read-out: EC50 value) it was ≤ 0.05 µM. In addition, the inhibition in vivo at 20 mg/kg in the assay on blood glucose level worked out at 20.9%.

As for `CC(C)c1noc(N2CCC(COc3ccc(C4=CCC(C(=O)N5CCOCC5)CC4)cc3F)CC2)n1` (stereo not drawn) [Example 97, (4-(3-fluoro-4-((1-(3-isopropyl-1,2,4-oxadiazol-5-yl)piperidin-4-yl)methoxy)phenyl)cyclohex-3-enyl)(morpholino)methanone], the EC50 in assay [1] (setting [2]) is 0.0084 µM; in assay [1] (read-out: EC50 value), ≤ 0.05 µM.

`CCN(CCO)C(=O)C1CC=C(c2ccc(OCC3CCN(c4nc(C(C)C)no4)CC3)cc2)CC1` (stereo not drawn) [Example 35, N-ethyl-N-(2-hydroxyethyl)-4-(4-((1-(3-isopropyl-1,2,4-oxadiazol-5-yl)piperidin-4-yl)methoxy)phenyl)cyclohex-3-enecarboxamide]: the EC50 in assay [1] (setting [2]) was 0.022 µM; in assay [1] (read-out: EC50 value) it was ≤ 0.05 µM.

Take `CCc1cnc(N2CCC(COc3ccc(C4=CCC(C(=O)N5CCCCC5)CC4)cc3)CC2)nc1` (stereo not drawn) [Example 163, (4-(4-((1-(5-ethylpyrimidin-2-yl)piperidin-4-yl)methoxy)phenyl)cyclohex-3-enyl)(piperidin-1-yl)methanone]: the 50% effective concentration (EC50) in assay [1] (setting [2]) is 0.007 µM; in assay [1] (read-out: EC50 value), ≤ 0.05 µM.
